Where two headings read alike, the source gives them in different places.

These results are taken from patent US12404269B2, “Aminoquinazolinone and aminoisoquinolinone derivatives and application thereof” (ZHEJIANG UNIVERSITY, priority 2018, dated 2025).

One data set relates to MCF7 (PIK3CA mut). The experiment in a line: Tumor cell proliferation, CCK8 method, MCF7. The note with it: CCK8, MCF7, read-out: MCF7 (PIK3CA mut) proliferation IC50. The format is cell-based, human. As for the experimental part:
(§1) The IC50 value was calculated using Graphpad Prism V5.0 software.
(Formazan colour is commonly taken as a measure of viable cells.)

The subject of a further data set is ZR-75-1 (PTEN loss). The experiment in a line: Tumor cell proliferation, CCK8 method, ZR-75-1. Type of data set: cell-based. The note with it: CCK8, ZR-75-1. As for the experimental part: as §1
A further data set concerns the target T1, PI3Kδ (Homo sapiens, UniProt O00329).
T1 construct: purchased Carna Bioscience
The experiment in a line: PI3Kδ molecular activity test (ADP-GLO). The note with it: recombinant protein. Type of data set: biochemical. As for the experimental part: (§2) Instrument: ELISA Reader Envision™ (PerkinElmer, USA)
(§3) Materials: Human recombinant PI3K and PI3Kδ proteins, purchased from Carna Bioscience; ADP-GLO kit, purchased from Promega.
(§4) Take the PI3Kα Molecular Activity Test as an Example to Describe the Text Method of the PI3K Subtypes
(§5) PI3K-α recombinant protein and substrate ATP were diluted with kinase reaction buffer (50 mM Tris-HCl, pH 7.4, 2.1 mM DTT, 0.05% Tween-20, 10 mM MgCl2). […] The specific reaction system was 2% of DMSO, 0.8 ng/μL PI3K-α, and 100 μM ATP, the positive compound control groups and control wells were set, and there were 3 multiple-wells for each concentration of each sample. After incubating for 2 hours at room temperature, ADP-GLO Reagent and Kinase Detection Reagent were added respectively, and then Envision™ was used to detect the […] readings. The activity rate of the samples were calculated by the sample readings, and the calculation formula was: activity rate=(ODcompound−ODcontrol)/(ODDMSO−ODcontro) ×100%.
(In ADP-Glo the light output rises with the ADP produced.)

For a further data set, the system named is KPL4 (PIK3CA mut). Description: Tumor cell proliferation, CCK8 method, KPL4. Type of data set: cell-based. The note with it: CCK8, KPL4; read-out: KPL4 (PIK3CA mut) proliferation IC50. Here is the method: as §1
A further data set relates to SW48 (PIK3CA mut). The experiment in a line: Tumor cell proliferation, CCK8 method, SW48. The note with it: CCK8, SW48, read-out: SW48 (PIK3CA mut) proliferation IC50. The format is cell-based. Here is the method: as §1
Another data set has as its target T2, PI3Kα (Homo sapiens, UniProt P42336).
T2 construct: purchased Carna Bioscience
Description: PI3Kα molecular activity test (ADP-GLO). The format is biochemical. To be noted: for Selectivity (PI3Kδ IC50/PI3KαIC50): PI3Kδ IC50/PI3Kα IC50; for IC50: recombinant protein, 100 μM ATP, 2 hours at room temperature. As for the experimental part: as §2, §3, §4, §5

Data set [1] in a line: Pharmacokinetic determination in SD rats, tail vein injection. The note with it: rat, plasma; male SD rats, intravenous, 1 mg/kg. The format is in vivo. As for the experimental part:
Healthy SD rats weighing 200±20 g, male, were randomly divided into groups with 6 rats in each group, and were administered by tail vein injection at a dose of 1 mg/kg. The blood sampling time points for pharmacokinetic analysis: 5 min, 15 min, 30 min, 2 h, 4 h, 6 h, 8 h, 24 h, and 48 h after administration. About 0.3 mL of whole blood was collected via the orbit and placed in a heparinized test tube, centrifugalized at 6000 rpm for 10 min to separate the plasma, and store at −80° C. for testing. The plasma concentrations of the each compounds were detected with an Agilent liquid mass spectrometry (LC-MS/MS, Agilent Jet Stream Electrometric spray ion), and the relevant pharmacokinetic parameters were calculated using the WinNonLin 7.0 pharmacokinetic software non-compartment model method.

T1 sequence (O00329 whole entry): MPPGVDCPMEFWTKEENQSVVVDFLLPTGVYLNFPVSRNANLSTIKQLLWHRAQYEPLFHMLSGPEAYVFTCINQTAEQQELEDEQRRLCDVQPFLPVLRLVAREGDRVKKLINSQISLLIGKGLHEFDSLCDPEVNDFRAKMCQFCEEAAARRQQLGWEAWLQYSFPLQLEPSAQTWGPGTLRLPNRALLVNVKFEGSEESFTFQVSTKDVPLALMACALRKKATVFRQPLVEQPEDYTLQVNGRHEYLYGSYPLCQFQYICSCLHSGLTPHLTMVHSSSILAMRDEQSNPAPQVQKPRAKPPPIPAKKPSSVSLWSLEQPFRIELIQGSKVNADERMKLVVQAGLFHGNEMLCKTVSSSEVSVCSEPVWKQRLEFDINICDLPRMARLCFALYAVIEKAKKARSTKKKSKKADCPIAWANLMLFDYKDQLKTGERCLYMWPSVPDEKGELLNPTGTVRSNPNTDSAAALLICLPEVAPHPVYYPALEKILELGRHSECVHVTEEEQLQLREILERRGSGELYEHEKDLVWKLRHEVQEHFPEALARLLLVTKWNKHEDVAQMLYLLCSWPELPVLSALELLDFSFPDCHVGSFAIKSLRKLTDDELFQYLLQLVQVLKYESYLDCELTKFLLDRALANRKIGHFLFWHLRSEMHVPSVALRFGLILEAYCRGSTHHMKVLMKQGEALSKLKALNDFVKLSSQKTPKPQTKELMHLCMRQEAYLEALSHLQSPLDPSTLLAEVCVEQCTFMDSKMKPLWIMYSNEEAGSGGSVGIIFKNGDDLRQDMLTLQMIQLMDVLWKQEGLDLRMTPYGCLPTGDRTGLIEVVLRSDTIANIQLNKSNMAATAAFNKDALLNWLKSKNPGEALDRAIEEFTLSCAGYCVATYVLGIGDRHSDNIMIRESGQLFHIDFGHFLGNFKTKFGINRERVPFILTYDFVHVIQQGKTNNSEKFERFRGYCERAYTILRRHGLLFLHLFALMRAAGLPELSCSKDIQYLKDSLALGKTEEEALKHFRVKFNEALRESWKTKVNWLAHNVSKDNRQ
T1 sequence (P27986 whole entry partner): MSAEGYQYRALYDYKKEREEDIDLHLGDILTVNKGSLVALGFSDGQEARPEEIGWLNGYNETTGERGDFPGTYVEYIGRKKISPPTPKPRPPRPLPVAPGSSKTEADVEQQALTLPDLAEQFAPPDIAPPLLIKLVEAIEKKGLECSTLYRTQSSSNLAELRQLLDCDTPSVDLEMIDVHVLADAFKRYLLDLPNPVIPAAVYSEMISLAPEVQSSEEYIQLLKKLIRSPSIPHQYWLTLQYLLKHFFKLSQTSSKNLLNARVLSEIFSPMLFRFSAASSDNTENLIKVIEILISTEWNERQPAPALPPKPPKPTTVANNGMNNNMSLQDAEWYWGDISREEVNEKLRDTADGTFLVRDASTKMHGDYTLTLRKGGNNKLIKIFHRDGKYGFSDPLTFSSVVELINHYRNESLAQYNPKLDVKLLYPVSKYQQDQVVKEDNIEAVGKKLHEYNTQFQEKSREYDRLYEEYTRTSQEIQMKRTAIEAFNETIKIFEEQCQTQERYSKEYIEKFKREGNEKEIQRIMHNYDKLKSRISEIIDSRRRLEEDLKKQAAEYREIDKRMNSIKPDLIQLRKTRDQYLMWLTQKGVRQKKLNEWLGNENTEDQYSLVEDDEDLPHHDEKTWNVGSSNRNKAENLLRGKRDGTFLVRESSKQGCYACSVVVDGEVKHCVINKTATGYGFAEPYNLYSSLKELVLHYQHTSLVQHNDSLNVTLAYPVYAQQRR
T2 sequence (P42336 whole entry): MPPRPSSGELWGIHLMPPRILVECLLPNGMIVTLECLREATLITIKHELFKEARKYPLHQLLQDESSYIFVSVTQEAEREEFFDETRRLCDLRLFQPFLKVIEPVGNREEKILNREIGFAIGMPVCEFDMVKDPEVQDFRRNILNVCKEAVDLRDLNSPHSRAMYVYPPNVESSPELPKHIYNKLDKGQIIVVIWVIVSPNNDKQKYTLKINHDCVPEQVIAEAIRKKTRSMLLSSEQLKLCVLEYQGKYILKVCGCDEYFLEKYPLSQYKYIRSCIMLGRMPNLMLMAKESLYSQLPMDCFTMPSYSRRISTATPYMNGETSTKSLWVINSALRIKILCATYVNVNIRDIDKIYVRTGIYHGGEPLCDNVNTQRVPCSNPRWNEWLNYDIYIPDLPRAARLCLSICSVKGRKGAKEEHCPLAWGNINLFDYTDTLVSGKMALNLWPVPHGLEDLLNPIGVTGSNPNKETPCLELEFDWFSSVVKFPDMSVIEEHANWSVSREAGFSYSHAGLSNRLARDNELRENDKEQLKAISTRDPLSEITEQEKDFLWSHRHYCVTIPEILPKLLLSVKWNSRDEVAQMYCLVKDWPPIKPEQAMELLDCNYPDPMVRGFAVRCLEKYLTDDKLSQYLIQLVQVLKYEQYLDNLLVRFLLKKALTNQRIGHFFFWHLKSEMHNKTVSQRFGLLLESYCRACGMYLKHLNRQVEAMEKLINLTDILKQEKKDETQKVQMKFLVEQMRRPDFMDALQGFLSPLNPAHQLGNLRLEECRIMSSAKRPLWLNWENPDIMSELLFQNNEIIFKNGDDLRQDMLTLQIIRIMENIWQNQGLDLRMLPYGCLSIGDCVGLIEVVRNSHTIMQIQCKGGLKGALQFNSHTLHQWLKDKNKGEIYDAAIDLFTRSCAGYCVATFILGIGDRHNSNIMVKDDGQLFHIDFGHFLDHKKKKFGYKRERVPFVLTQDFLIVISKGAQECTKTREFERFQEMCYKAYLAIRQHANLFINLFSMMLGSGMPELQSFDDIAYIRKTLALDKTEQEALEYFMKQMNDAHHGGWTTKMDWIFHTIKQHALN
T2 sequence (P27986 whole entry partner): as the sequence (P27986 whole entry partner) above

On to `COc1c(OCCCN2CCOCC2)ccc2c(=O)n(C)c(NC(=O)c3cnc(N)nc3)nc12` [8a-1], for which the IC50 in the data set on MCF7 (PIK3CA mut) (Homo sapiens), in the data set with ZR-75-1 (PTEN loss) (Homo sapiens), on PI3Kδ, in the data set with KPL4 (PIK3CA mut), in the data set on SW48 (PIK3CA mut) (Homo sapiens) and on PI3Kα was under 20 nM in each case. Moreover, the “Selectivity (PI3Kδ IC50/PI3KαIC50)” value at PI3Kα is given as “II (“II” represents 5-10 times)”. The molecule also came in with a Vd in data set [1] of 4.2 L/kg. Besides, the clearance in data set [1] is 33.3 mL/min/kg. In addition, in data set [1], the half-life was 5.3 h.
In data set [1], `CCn1c(NC(=O)c2cnc(N)nc2)cc2c3c(ccc2c1=O)OCO3` [14b′-1] had a Vd of 3.9 L/kg, a clearance of 65 mL/min/kg and a half-life of 4.2 h.
Take `COc1c(OCCC(N)=O)ccc2c(=O)n(C)c(NC(=O)c3cnc(N)nc3)cc12` [8a′-3]: at PI3Kδ, the IC50 lay within 20 to 200 nM. Also, at PI3Kα, the “Selectivity (PI3Kδ IC50/PI3KαIC50)” value is given as “III (“III” represents >10 times)” and the IC50 was under 20 nM. In data set [1], this molecule had a Vd of 2.9 L/kg, a clearance of 41.7 mL/min/kg and a half-life of 6.7 h.
As to `COc1c(OCC(N)=O)ccc2c(=O)n(C)c(NC(=O)c3cnc(N)nc3)nc12` [8a-2], the IC50 in the data set with MCF7 (PIK3CA mut) (Homo sapiens), in the data set on ZR-75-1 (PTEN loss) (Homo sapiens), on PI3Kδ, with KPL4 (PIK3CA mut), in the data set with SW48 (PIK3CA mut) (Homo sapiens) and at PI3Kα was under 20 nM throughout. Further, the “Selectivity (PI3Kδ IC50/PI3KαIC50)” value at PI3Kα is “III (“III” represents >10 times)”. For the same molecule, in data set [1], the Vd was found to be 3.2 L/kg. Further, the clearance in data set [1] was 30 mL/min/kg. Also, the half-life in data set [1] is 4.9 h.
In the case of `CCn1c(NC(=O)c2cnc(N)nc2)nc2c3c(ccc2c1=O)OCCCO3` [14b-3], in data set [1], the Vd was determined as 2.4 L/kg, the clearance is 38.3 mL/min/kg and the half-life is 4.7 h.
For the molecule `CCn1c(NC(=O)c2cnc(N)nc2)nc2c(OC)c(OCCCN3CCOCC3)ccc2c1=O` [8b-1], the IC50 with MCF7 (PIK3CA mut) (Homo sapiens), with ZR-75-1 (PTEN loss) (Homo sapiens), in the data set on KPL4 (PIK3CA mut) and in the data set on SW48 (PIK3CA mut) (Homo sapiens) was under 20 nM throughout. Further, the Vd in data set [1] worked out at 3.8 L/kg. The molecule also had a clearance in data set [1] of 31.7 mL/min/kg. The half-life in data set [1] was 5.2 h.
For the molecule `CCn1c(NC(=O)c2cnc(N)nc2)nc2c3c(ccc2c1=O)OCCCCO3` [14b-4], the IC50 with MCF7 (PIK3CA mut) (Homo sapiens) was under 20 nM; in the data set with ZR-75-1 (PTEN loss) (Homo sapiens), 200 to 1000 nM; on PI3Kδ it was 20 to 200 nM; with KPL4 (PIK3CA mut), 20 to 200 nM; in the data set on SW48 (PIK3CA mut) (Homo sapiens) it was 200 to 1000 nM; on PI3Kα, 20 to 200 nM. The “Selectivity (PI3Kδ IC50/PI3KαIC50)” value on PI3Kα is “I (“I” represents <5 times)”.
Consider `CCn1c(NC(=O)c2cnc(N)nc2)nc2c(OC)c(OC[C@@H](O)CN3CCOCC3)ccc2c1=O` [8b-27, (S)-2-amino-N-(3-ethyl-7-(2-hydroxy-3-morpholinopropoxy)-8-methoxy-4-oxo-3,4-dihydroquinazolin-2-yl) pyrimidine-5-carboxamide], for which the IC50 in the data set with MCF7 (PIK3CA mut) (Homo sapiens) is under 20 nM; with ZR-75-1 (PTEN loss) (Homo sapiens) it was 200 to 1000 nM; at PI3Kδ it was 200 to 1000 nM; in the data set with KPL4 (PIK3CA mut), 20 to 200 nM; with SW48 (PIK3CA mut) (Homo sapiens), 20 to 200 nM; on PI3Kα, under 20 nM. The “Selectivity (PI3Kδ IC50/PI3KαIC50)” value at PI3Kα is “II (“II” represents 5-10 times)”.
Regarding `CCn1c(NC(=O)c2ccc(N)nc2)nc2c(OC)c(OCC(=O)NCCN3CCOCC3)ccc2c1=O` [8b-48, 6-amino-N-(3-ethyl-8-methoxy-7-(2-((2-morpholinoethyl)amino)-2-oxoethoxy)-4-oxo-3,4-dihydroquinazolin-2-yl)nicotinamide], the IC50 in the data set on MCF7 (PIK3CA mut) (Homo sapiens) is under 20 nM; with ZR-75-1 (PTEN loss) (Homo sapiens) it was 200 to 1000 nM; on PI3Kδ, 200 to 1000 nM; with KPL4 (PIK3CA mut), 20 to 200 nM; in the data set with SW48 (PIK3CA mut) (Homo sapiens) it was 20 to 200 nM; at PI3Kα, under 20 nM. Besides, the “Selectivity (PI3Kδ IC50/PI3KαIC50)” value at PI3Kα is on record as “II (“II” represents 5-10 times)”.
As to `CCn1c(NC(=O)c2cnc(N)nc2)nc2c(OC)c(OCC(N)=O)ccc2c1=O` [8b-2], the IC50 with MCF7 (PIK3CA mut) (Homo sapiens) was under 20 nM; in the data set with ZR-75-1 (PTEN loss) (Homo sapiens), 20 to 200 nM; on PI3Kδ, 20 to 200 nM; in the data set with KPL4 (PIK3CA mut), 20 to 200 nM; with SW48 (PIK3CA mut) (Homo sapiens), 20 to 200 nM; on PI3Kα, under 20 nM. Besides, the “Selectivity (PI3Kδ IC50/PI3KαIC50)” value at PI3Kα is “III (“III” represents >10 times)”.
`CCn1c(NC(=O)c2cnc(N)nc2)cc2c(OC)c(OCC(N)=O)ccc2c1=O` [8b′-2]: the IC50 in the data set with MCF7 (PIK3CA mut) (Homo sapiens) was under 20 nM; with ZR-75-1 (PTEN loss) (Homo sapiens), 20 to 200 nM; at PI3Kδ, 20 to 200 nM; in the data set with KPL4 (PIK3CA mut), 20 to 200 nM; in the data set with SW48 (PIK3CA mut) (Homo sapiens) it was 20 to 200 nM; on PI3Kα it was under 20 nM. Moreover, on PI3Kα, the “Selectivity (PI3Kδ IC50/PI3KαIC50)” value was “III (“III” represents >10 times)”.
With `CCn1c(NC(=O)c2cnc(N)nc2)nc2c(OC)c(OCC(C)NS(C)(=O)=O)ccc2c1=O` (stereo not drawn) [8b-30, 2-amino-N-(3-ethyl-8-methoxy-7-(2-(methylsulfonamido)propoxy)-4-oxo-3,4-dihydroquinazolin-2-yl) pyrimidine-5-carboxamide], the IC50 in the data set with MCF7 (PIK3CA mut) is under 20 nM; in the data set on ZR-75-1 (PTEN loss) it was 200 to 1000 nM; at PI3Kδ, 200 to 1000 nM; with KPL4 (PIK3CA mut), 20 to 200 nM; in the data set on SW48 (PIK3CA mut), 20 to 200 nM; on PI3Kα it was under 20 nM. Besides, on PI3Kα, the “Selectivity (PI3Kδ IC50/PI3KαIC50)” value is given as “II (“II” represents 5-10 times)”.
As for `Cn1c(NC(=O)c2cnc(N)nc2)nc2c3c(ccc2c1=O)OCCCCCCCCO3` [14a-8], the IC50 in the data set on MCF7 (PIK3CA mut) (Homo sapiens) was under 20 nM; in the data set on ZR-75-1 (PTEN loss) (Homo sapiens), 20 to 200 nM; at PI3Kδ it was under 20 nM; with KPL4 (PIK3CA mut), 20 to 200 nM; in the data set on SW48 (PIK3CA mut) (Homo sapiens), 20 to 200 nM; at PI3Kα, under 20 nM. The “Selectivity (PI3Kδ IC50/PI3KαIC50)” value at PI3Kα is recorded as “I (“I” represents <5 times)”.
Take `CCOC(=O)COc1ccc2c(=O)n(C)c(NC(=O)c3cnc(N)nc3)nc2c1OC` [8a-29]: the IC50 in the data set with MCF7 (PIK3CA mut) (Homo sapiens) was under 20 nM; with ZR-75-1 (PTEN loss) (Homo sapiens), 200 to 1000 nM; at PI3Kδ it was 200 to 1000 nM; with KPL4 (PIK3CA mut), 20 to 200 nM; in the data set on SW48 (PIK3CA mut) (Homo sapiens), 20 to 200 nM; on PI3Kα, under 20 nM. Moreover, the “Selectivity (PI3Kδ IC50/PI3KαIC50)” value at PI3Kα is reported as “III (“III” represents >10 times)”.
Turning to `CCn1c(NC(=O)c2cnc(N)nc2)nc2c(OC)c(OCCCC(N)=O)ccc2c1=O` [8b-9], the IC50 on PI3Kδ lay within 20 to 200 nM. On PI3Kα, the “Selectivity (PI3Kδ IC50/PI3KαIC50)” value is on record as “III (“III” represents >10 times)” and the IC50 is under 20 nM. In data set [1], this molecule showed a Vd of 3.9 L/kg, a clearance of 26.7 mL/min/kg and a half-life of 4.2 h.
Turning to `Cn1c(NC(=O)c2cnc(N)nc2)nc2c3c(ccc2c1=O)OCCCCO3` [14a-4], the IC50 with MCF7 (PIK3CA mut) (Homo sapiens) is 20 to 200 nM; in the data set with ZR-75-1 (PTEN loss) (Homo sapiens), 200 to 1000 nM; at PI3Kδ, under 20 nM; in the data set with KPL4 (PIK3CA mut) it was 200 to 1000 nM; with SW48 (PIK3CA mut) (Homo sapiens), 200 to 1000 nM; on PI3Kα it was under 20 nM. The “Selectivity (PI3Kδ IC50/PI3KαIC50)” value at PI3Kα is “I (“I” represents <5 times)”.

One may read the Vd as a proportionality between amount in the body and measured concentration, not a real space. Lower therefore signals confinement near the circulation. The term clearance denotes a measure of how efficiently the substance is removed, as volume per time. As a reminder, the half-life is the time needed for the level to fall by half in the phase considered.
